The text below walks through data of patent US20260034119A1, “5-METHOXY-N,N-[…][…], THEIR […], AND METHODS FOR TREATMENT OF NEUROLOGICAL, […], AND SUBSTANCE USE DISORDERS” (priority 2023, published 2026).

Series [1] can be described thus: Mouse brain tissue binding. The format is in vitro ADME. The conditions noted are these: for fraction unbound: mouse, brain tissue.
Series [2] in a line: Human plasma protein binding. In kind it is in vitro ADME. The conditions noted are these: for fraction unbound: human, plasma.
Series [3] relates to all human 5-HT receptor subtypes. The series can be described thus: PRESTO-TANGO arrestin-recruitment assay. The format is cell-based. The conditions noted are these: compared with 5-HT1A. Here is the method:
The receptor contructs were obtained from Addgene and contain the TEV cleavage site and the tetracycline transactivator (tTA) fused to the C terminus of the receptor. For the assay, constructs were transfected into HTLA cells (kindly provided by Dr. Bryan Roth, University of North Carolina), which express TEV fused-β-Arrestin2 and a tetracycline transactivator-driven luciferase and are necessary for this assay. A day before the assay cells were cultured in DMEM supplemented with 1% dFBS and transfected with 8 μg of DNA per 7 million cells in a 10 cm plate using PEI transfection. The next day, 20,000 cells in 40 μl were then plated in poly-L-lysine-coated clear-bottom 384-well plates in the same media and incubated for at least 5 hr before stimulation. […] After 16-24 hr overnight incubation, media and drug solutions were aspirated and 20 μl per well of BrightGlo reagent (purchased from Promega, after 1:20 dilution) was added per well. The plate was incubated for 20 min at room temperature in the dark before being counted using a MicroBeta TriLux liquid scintillation counter.

A further series deals with T1, OCT1 (Homo sapiens, UniProt O15245).
T1 construct: expressed in transfected cells; host or cells: Flp-In T-Rex cell line (ThermoFisher), tetracycline-induced
T1 sequence (O15245 1-554): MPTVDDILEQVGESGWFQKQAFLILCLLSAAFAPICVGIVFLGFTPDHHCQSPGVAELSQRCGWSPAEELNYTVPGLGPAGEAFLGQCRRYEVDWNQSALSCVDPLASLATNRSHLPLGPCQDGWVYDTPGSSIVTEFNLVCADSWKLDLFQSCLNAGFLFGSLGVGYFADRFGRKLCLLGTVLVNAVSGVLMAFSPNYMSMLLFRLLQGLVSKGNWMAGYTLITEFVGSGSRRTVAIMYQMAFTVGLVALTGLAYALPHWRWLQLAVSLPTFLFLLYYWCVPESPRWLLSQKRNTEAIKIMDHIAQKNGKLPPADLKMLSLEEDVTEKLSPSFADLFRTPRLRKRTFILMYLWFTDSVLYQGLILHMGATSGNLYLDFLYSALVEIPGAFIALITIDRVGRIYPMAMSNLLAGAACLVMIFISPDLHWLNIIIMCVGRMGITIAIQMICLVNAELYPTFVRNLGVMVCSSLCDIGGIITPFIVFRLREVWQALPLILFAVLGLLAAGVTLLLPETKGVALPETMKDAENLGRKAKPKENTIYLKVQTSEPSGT
The series can be described thus: OCT1 uptake inhibition. Conditions: compared with 5-HT1A. The format is cell-based. As to the method:
Inducible cell lines stably expressing OCT1, OCT2, or PMAT were generated using the Flp-In T-Rex cell line (ThermoFisher) according to manufacturer recommendations. Cells were maintained in DMEM supplemented with 10% FBS, 100 μg/ml hygromycin B (GoldBio), and 10 μg/ml blasticidin (GoldBio). To measure uptake inhibition, cells were seeded into poly-L-lysine coated clear-bottom 384-well plates at a density of 25,000 cells per well in DMEM containing 10% FBS and 2 μg/ml of tetracycline (Sigma) to induce transporter expression. […] Cells were incubated with drug for 30 min at 37° C. Fluorescent substrate was then added to the cells. […] Cells were incubated with respective substrates for an hour at 37° C. OCT2 cells were read directly in a Victor NIVO plate reader using 495 nm excitation and 580 emission filter for 0.1 s. OCT1 and PMAT cells were washed in HBSS supplemented with 20 mM HEPES pH 7.4 before reading in a Victor NIVO plate reader using 435 nm excitation and 480 nm emission filter for 0.1 s.

A further series addresses T2, 5-HT1A A365N (Homo sapiens, UniProt P08908, A365N).
T2 construct: expressed in transfected cells; host or cells: HEK293-T
T2 sequence (P08908 1-422 A365N): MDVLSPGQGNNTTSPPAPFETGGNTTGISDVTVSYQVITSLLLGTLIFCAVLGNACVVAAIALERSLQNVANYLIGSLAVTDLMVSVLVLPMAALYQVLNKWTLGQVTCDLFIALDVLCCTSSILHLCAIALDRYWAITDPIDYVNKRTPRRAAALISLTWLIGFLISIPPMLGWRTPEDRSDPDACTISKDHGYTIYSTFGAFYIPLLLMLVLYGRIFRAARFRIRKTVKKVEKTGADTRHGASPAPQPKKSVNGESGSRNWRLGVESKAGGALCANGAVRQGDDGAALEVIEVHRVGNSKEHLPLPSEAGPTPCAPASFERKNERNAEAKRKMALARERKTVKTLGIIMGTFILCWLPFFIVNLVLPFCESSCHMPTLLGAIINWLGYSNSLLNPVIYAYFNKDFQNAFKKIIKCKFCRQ
The series can be described thus: Gi1 BRET at mutant 5-HT1A A365N. In kind it is cell-based. The conditions noted are these: Gi1 BRET, 5-HT1A A365N^6.55.

A further series addresses T3, 5-HT2A V366N (Homo sapiens, UniProt P28223, V366N).
T3 construct: expressed in transfected cells; host or cells: HEK293-T
The experiment in a line: Gq BRET at mutant 5-HT2A V366N. The format is cell-based. The conditions noted are these: Gq BRET, 5-HT2A V366N^7.39.

The next series addresses 5-HT1A (Homo sapiens, UniProt P08908). The series can be described thus: BRET signaling assay: 5-HT1A-mediated activation of heterotrimeric Gi1 (TRUPATH, HEK293-T).
Where [4] appears, read: read-out: % Bound Mean (converted).
The mark [5] stands for this setting: replicate R1, read-out: % Bound R1 (converted).
Setting [6] is: replicate R2, read-out: % Bound R2 (converted).

5-HT1A, sequence (P08908 whole entry): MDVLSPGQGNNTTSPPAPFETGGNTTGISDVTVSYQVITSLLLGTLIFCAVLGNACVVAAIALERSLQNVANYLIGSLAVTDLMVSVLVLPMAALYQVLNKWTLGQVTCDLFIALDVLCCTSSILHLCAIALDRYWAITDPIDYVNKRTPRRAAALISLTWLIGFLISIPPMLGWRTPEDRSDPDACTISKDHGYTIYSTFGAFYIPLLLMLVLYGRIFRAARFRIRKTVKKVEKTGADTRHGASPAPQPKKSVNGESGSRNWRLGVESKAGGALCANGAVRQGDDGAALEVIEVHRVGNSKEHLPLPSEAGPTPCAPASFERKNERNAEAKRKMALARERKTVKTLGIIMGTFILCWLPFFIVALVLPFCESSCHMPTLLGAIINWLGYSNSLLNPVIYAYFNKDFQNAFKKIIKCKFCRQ
T3 sequence (P28223 whole entry V366N): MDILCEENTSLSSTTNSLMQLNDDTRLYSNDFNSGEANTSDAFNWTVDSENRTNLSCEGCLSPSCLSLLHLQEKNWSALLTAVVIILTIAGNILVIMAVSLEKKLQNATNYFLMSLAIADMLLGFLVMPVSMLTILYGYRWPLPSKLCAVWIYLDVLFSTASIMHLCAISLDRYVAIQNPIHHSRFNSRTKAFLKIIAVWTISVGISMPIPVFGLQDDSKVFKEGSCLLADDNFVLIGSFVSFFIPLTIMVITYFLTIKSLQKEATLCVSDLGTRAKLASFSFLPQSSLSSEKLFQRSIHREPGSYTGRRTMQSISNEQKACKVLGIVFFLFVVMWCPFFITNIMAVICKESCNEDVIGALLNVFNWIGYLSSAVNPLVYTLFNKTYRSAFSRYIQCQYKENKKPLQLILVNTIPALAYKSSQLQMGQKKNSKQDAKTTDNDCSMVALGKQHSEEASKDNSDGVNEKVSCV

Consider `COc1ccc2[nH]cc(CCN3CCCC3)c2c1F` [4-F, 5-MeO-PyrT, 4-Fluoro, 5-methoxypyrrolidinyl-tryptamine], for which, in series [1], the brain tissue binding worked out at 82.5%. For the same molecule, the results for the recovery in series [1] and in series [2] were 88% and 81.8%, respectively. The entries for the “% Compound remaining at 4 h” value in series [1] (4 h) and in series [2] (4 h) were 96% and 97.9%, respectively. Moreover, the fraction unbound is 0.175 in series [1] (setting [4]); 0.175 in series [1] (read-out: % Unbound); 0.175 in series [1] (read-out: fu); 0.157 in series [1] (setting [5]); 0.193 in series [1] (setting [6]); 0.74 in series [2] (setting [4]). In addition, the fraction unbound was 0.74 in series [2] (read-out: % Unbound), 0.74 in series [2] (read-out: fu), 0.778 in series [2] (setting [5]) and 0.702 in series [2] (setting [6]). For the same molecule, in series [3], the “activity at all other G protein-coupled serotonin receptors” value is given as “substantially lower activity”. Moreover, the “activity at other neurotransmitter transporters (OCT1)” value at OCT1 was “substantially lower activity”. The pEC50 entry at 5-HT1A A365N is “(8.29,”; on 5-HT2A V366N, “(6.8,”; at 5-HT1A (Gi1 BRET, 5-HT1A WT), “(9.43,”. The EC50 was determined as 5.08 nM at 5-HT1A A365N (read-out: EC50), 157 nM at 5-HT2A V366N (read-out: EC50) and 0.37 nM on 5-HT1A (read-out: Gi BRET EC50). For the same molecule, at 5-HT1A, the “Emax, 5-HT1A-mediated activation of Gi1 (BRET)” value is 102.8 % of 5-HT.
